Experiment [1] deals with MDA-MB-231. Nature of the experiment: Cytotoxicity against human MDA-MB-231 cells by MTT assay. It counts as functional, cell-based. (Tetrazolium assays rely on reduction of a dye to a coloured formazan, in cell work by metabolically active cells.)
The subject of experiment [2] is MCF7. The experiment can be described thus: Cytotoxicity against human MCF7 cells by MTT assay. It is filed as functional, cell-based.
Experiment [3] has as its system SK-N-MC. Nature of the experiment: Cytotoxicity against human SK-N-MC cells by MTT assay. It counts as functional, cell-based.
The subject of experiment [4] is MDA-MB-231. Nature of the experiment: Ratio of etoposide IC50 to compound IC50 for human MDA-MB-231 cells by MTT assay. It counts as functional.
The test system of experiment [5] is MCF7. The experiment can be described thus: Ratio of etoposide IC50 to compound IC50 for human MCF7 cells by MTT assay. It is filed as functional.
Experiment [6] deals with SK-N-MC. The experiment can be described thus: Ratio of etoposide IC50 to compound IC50 for human SK-N-MC cells by MTT assay. It counts as functional.

The values that follow come from ChEMBL document CHEMBL1949511, “Asymmetrical 2,6-bis(benzylidene)cyclohexanones: Synthesis, cytotoxic activity and QSAR study” (Eur J Med Chem, 2012).

Converted amounts (≈) assume the structure as drawn.

Consider `O=C1/C(=C/c2ccc(Cl)cc2)CCC/C1=C\c1ccc([N+](=O)[O-])cc1`, for which the values for the IC50 in the experiment on MDA-MB-231 [1], in the experiment on MCF7 [2] and in the experiment on SK-N-MC [3] were 12.4 µg/mL (≈ 35.1 µM), 1.02 µg/mL (≈ 2.88 µM) and 14 µg/mL (≈ 39.7 µM), respectively.
For `COc1cc(/C=C2\CCC/C(=C\c3ccc([N+](=O)[O-])cc3)C2=O)ccc1O` the same measures were 13.1 µg/mL (≈ 35.8 µM), 7.05 µg/mL (≈ 19.3 µM) and 48 µg/mL (≈ 131 µM).
`COc1cccc(/C=C2\CCC/C(=C\c3ccccc3[N+](=O)[O-])C2=O)c1`: the IC50 (commonly the point on the concentration scale where inhibition reaches its midpoint) with MDA-MB-231 [1] is 14.3 µg/mL (≈ 41 µM); with MCF7 [2], 5.62 µg/mL (≈ 16.1 µM); in the experiment on SK-N-MC [3], 4.49 µg/mL (≈ 12.9 µM).
For `COc1cc(/C=C2\CCC/C(=C\c3ccccc3[N+](=O)[O-])C2=O)cc(Br)c1OC` the same measures were 8.99 µg/mL (≈ 19.6 µM), 3.35 µg/mL (≈ 7.31 µM) and 6.24 µg/mL (≈ 13.6 µM).
With `CCCOc1c(Br)cc(/C=C2\CCC/C(=C\c3ccccc3[N+](=O)[O-])C2=O)cc1OC`, the figures for the IC50 in the experiment with MDA-MB-231 [1], in the experiment with MCF7 [2] and in the experiment with SK-N-MC [3] were 1.99 µg/mL (≈ 4.09 µM), 4.14 µg/mL (≈ 8.51 µM) and 3.5 µg/mL (≈ 7.2 µM), respectively. Further, the “Ratio IC50” value in the experiment with MDA-MB-231 [4] came to 10.
For `COc1cccc(/C=C2\CCC/C(=C\c3cccc([N+](=O)[O-])c3)C2=O)c1`, the values for the 50% inhibitory concentration (IC50) in the experiment with MDA-MB-231 [1], with MCF7 [2] and in the experiment on SK-N-MC [3] were 13.2 µg/mL (≈ 37.7 µM), 4.17 µg/mL (≈ 11.9 µM) and 4.94 µg/mL (≈ 14.1 µM), respectively.
`COc1cccc(/C=C2\CCC/C(=C\c3cccc([N+](=O)[O-])c3)C2=O)c1OC`: the IC50 in the experiment with MDA-MB-231 [1] is 5.59 µg/mL (≈ 14.7 µM); in the experiment on MCF7 [2], 5.14 µg/mL (≈ 13.5 µM); in the experiment on SK-N-MC [3], 10.1 µg/mL (≈ 26.6 µM).
In the same order, the values of `COc1cc(/C=C2\CCC/C(=C\c3cccc([N+](=O)[O-])c3)C2=O)cc(Br)c1OC` are 13.9 µg/mL (≈ 30.4 µM), 4.72 µg/mL (≈ 10.3 µM) and 16.7 µg/mL (≈ 36.4 µM).
In the same order, the values of `CCOc1c(Br)cc(/C=C2\CCC/C(=C\c3cccc([N+](=O)[O-])c3)C2=O)cc1OC` are 19.3 µg/mL (≈ 40.9 µM), 24.9 µg/mL (≈ 52.7 µM) and 10.8 µg/mL (≈ 22.8 µM).
Regarding `CCCOc1c(Br)cc(/C=C2\CCC/C(=C\c3cccc([N+](=O)[O-])c3)C2=O)cc1OC`, the IC50 in the experiment with MDA-MB-231 [1] was 2.99 µg/mL (≈ 6.15 µM); in the experiment with MCF7 [2], 0.85 µg/mL (≈ 1.75 µM); in the experiment with SK-N-MC [3], 1.51 µg/mL (≈ 3.1 µM). The “Ratio IC50” value in the experiment on MCF7 [5], in the experiment on SK-N-MC [6] and in the experiment on MDA-MB-231 [4] was 7 in each case.
As to `CCCCOc1c(Br)cc(/C=C2\CCC/C(=C\c3cccc([N+](=O)[O-])c3)C2=O)cc1OC`, the values for the half-maximal inhibitory concentration (IC50) with MDA-MB-231 [1], in the experiment on MCF7 [2] and in the experiment with SK-N-MC [3] were 5.53 µg/mL (≈ 11.1 µM), 5.97 µg/mL (≈ 11.9 µM) and 25.3 µg/mL (≈ 50.7 µM), respectively.
`O=C1/C(=C/c2ccc([N+](=O)[O-])cc2)CCC/C1=C\c1cccc([N+](=O)[O-])c1`: the half-inhibitory concentration (IC50) in the experiment on MDA-MB-231 [1] came to 8.85 µg/mL (≈ 24.3 µM); in the experiment with MCF7 [2], 8.4 µg/mL (≈ 23.1 µM); in the experiment on SK-N-MC [3], 17.9 µg/mL (≈ 49.1 µM).
On to `O=C1/C(=C/c2cccc(Cl)c2)CCC/C1=C\c1cccc([N+](=O)[O-])c1`, for which the IC50 was 5.01 µg/mL (≈ 14.2 µM) in the experiment with MDA-MB-231 [1], 5.15 µg/mL (≈ 14.6 µM) with MCF7 [2] and 4.15 µg/mL (≈ 11.7 µM) with SK-N-MC [3].
In the same order, the values of `COc1cccc(/C=C2\CCC/C(=C\c3ccc([N+](=O)[O-])cc3)C2=O)c1` are 51.4 µg/mL (≈ 147 µM), 5.82 µg/mL (≈ 16.7 µM) and 11.5 µg/mL (≈ 33 µM).
For `COc1cccc(/C=C2\CCC/C(=C\c3ccc([N+](=O)[O-])cc3)C2=O)c1OC` the same measures were 6.73 µg/mL (≈ 17.7 µM), 13.3 µg/mL (≈ 35.1 µM) and 22.1 µg/mL (≈ 58.4 µM).
For the molecule `COc1cc(/C=C2\CCC/C(=C\c3ccc([N+](=O)[O-])cc3)C2=O)cc(Br)c1O`, the results for the half-maximal inhibitory concentration (IC50) with MDA-MB-231 [1], with MCF7 [2] and with SK-N-MC [3] were greater than 100 µg/mL, 4.93 µg/mL (≈ 11.1 µM) and 16.8 µg/mL (≈ 37.8 µM), respectively.
As to `COc1cc(/C=C2\CCC/C(=C\c3ccc([N+](=O)[O-])cc3)C2=O)cc(Br)c1OC`, the IC50 in the experiment on MDA-MB-231 [1] was found to be 8.71 µg/mL (≈ 19 µM); in the experiment with MCF7 [2] it was 11 µg/mL (≈ 24.1 µM); with SK-N-MC [3] it was 9.86 µg/mL (≈ 21.5 µM).
`CCOc1c(Br)cc(/C=C2\CCC/C(=C\c3ccc([N+](=O)[O-])cc3)C2=O)cc1OC`: the figures for the IC50 with MDA-MB-231 [1], with MCF7 [2] and in the experiment on SK-N-MC [3] were 34.7 µg/mL (≈ 73.5 µM), 3.08 µg/mL (≈ 6.52 µM) and 3.91 µg/mL (≈ 8.28 µM), respectively.
In the case of `CCCOc1c(Br)cc(/C=C2\CCC/C(=C\c3ccc([N+](=O)[O-])cc3)C2=O)cc1OC`, the IC50 is 4.01 µg/mL (≈ 8.24 µM) in the experiment on MDA-MB-231 [1], 7.98 µg/mL (≈ 16.4 µM) with MCF7 [2] and 23.3 µg/mL (≈ 47.8 µM) in the experiment on SK-N-MC [3].
In the same order, the values of `CCCCOc1c(Br)cc(/C=C2\CCC/C(=C\c3ccc([N+](=O)[O-])cc3)C2=O)cc1OC` are 8.38 µg/mL (≈ 16.7 µM), 27 µg/mL (≈ 54 µM) and 41.3 µg/mL (≈ 82.6 µM).
In the same order, the values of `COc1ccc(/C=C2\CCC/C(=C\c3cccc([N+](=O)[O-])c3)C2=O)cc1` are 44.7 µg/mL (≈ 128 µM), 5.71 µg/mL (≈ 16.3 µM) and 10.4 µg/mL (≈ 29.7 µM).
As to `COc1ccc(/C=C2\CCC/C(=C\c3ccccc3[N+](=O)[O-])C2=O)cc1`, the half-maximal inhibitory concentration (IC50) was found to be 45 µg/mL (≈ 129 µM) with MDA-MB-231 [1], 11.2 µg/mL (≈ 32.1 µM) in the experiment with MCF7 [2] and 75 µg/mL (≈ 215 µM) with SK-N-MC [3].
For `COc1cc([C@@H]2c3cc4c(cc3[C@@H](O[C@@H]3O[C@@H]5CO[C@@H](C)O[C@H]5[C@H](O)[C@H]3O)[C@H]3COC(=O)[C@H]23)OCO4)cc(OC)c1O` [ETOPOSIDE] the same measures were 20.5 µg/mL (≈ 34.9 µM), 18.4 µg/mL (≈ 31.3 µM) and 14 µg/mL (≈ 23.9 µM).
